Measured values published in US8338426B2, “Piperazinyl derivatives useful as modulators of the neuropeptide Y2 receptor” (Janssen Pharmaceutica NV, priority 2007, dated 2012).
Like-named read-outs stand apart in the source and are kept apart here.

Experiments:
[1] = test system: panel of 50 receptors, ion channels and transporters; assay: CEREP panel of 50 receptors, ion channels and transporters; format: binding; settings: concentrations up to 1 μM
Method: The selectivity of the compound of formula (A) was further evaluated in a large variety of ion-channels, transporters and receptor-binding assays including the Y1 receptor subtype. These assays were performed by CEREP (Celles L'Evescault, France; www.cere.com<http//www.cerea.com>). Selectivity vs the Y5 receptor subtype was evaluated as described in Bonaventure, P., D. Nepomuceno, C. Mazur, B. Lord, D. A. Rudolph, J. A. Jablonowski, N. I. Carruthers and T. W. Lovenberg, J Pharmacol Exp Ther. 2004, 308, 1130.
The compound of formula (A) was assayed by binding in a panel of 50 receptors, ion channels and transporters assays (CEREP) including adenosine (A1,A2A,A3), adrenergic (α1, α2, β1), angiotensin (AT1), dopamine (D1, D2), bradykinin (B2), cholecystokinin (CCKA), galanin (GAL2), melatonin ML1), muscarinic (M1, M2, M3), neurotensin (NTS), neurokinin (NK2, NK3), NPY (Y1, Y2) opiate (m, k, d), serotonin (5-HT1A, 5-HT1B, 5-HT2A, 5-HT3, 5-HT5A, 5-HT6, 5-HT7), somatostatin, vasopressin (V1a), norepinephrine transporter, dopamine transporter and ion channels (sodium, calcium, potassium and chloride).

[2] = biological target: MTP (Homo sapiens, UniProt P55157); assay: MTP assay (triglyceride transfer between vesicles); format: biochemical; settings: read-out: MTP pIC50 (converted)
Method: MTP activity was measured using an assay similar to one described by J. R. Wetterau and D. B. Zilversmit in Chemistry and Physics of Lipids (1985) 38, 205-222.
In order to prepare the donor and acceptor vesicles, the appropriate lipids in chloroform were put into a glass test tube and dried under a stream of nitrogen. A buffer containing 15 mM Tris-HCl (pH 7.5), 1 mM ethylenediamine tetra-acetic acid, 40 mM NaCl, 0.02% NaN3 (assay buffer) was added to the dried lipid. The mixture was vortexed briefly and the lipids were then allowed to hydrate for 20 minutes on ice. Vesicles were then prepared by bath sonication (using a Branson 2200 device) at room temperature for at most 15 minutes. Butylated hydroxytoluene was included in all vesicle preparations at a concentration of 0.1%. The lipid transfer assay mixture contained donor vesicles (40 nmole phosphatidylcholine, 7.5 mole % cardiolipin and 0.25 mole % glycerol tri[1-^14C]-oleate), acceptor vesicles (240 nmol phosphatidylcholine) and 5 mg bovine serum albumin in a total volume of 675 μl in a 1.5 ml microcentrifuge tube. Test compound was added dissolved in dimethylsulfoxide (0.13% final concentration). After 5 minutes of pre-incubation at 37° C., the reaction was started by the addition of MTP in 100 μl of a dialysis buffer. The reaction was stopped by the addition of 400 μl […] (DEAE)-52 cellulose (Sephadex) pre-equilibrated in 15 mM Tris-HCl (pH 7.5), 1 mM ethylenediamine tetra-acetic acid and 0.02% NaN3 (1:1 volume/volume). The mixture was agitated for 4 minutes and centrifuged for 2 minutes at maximum speed in an Eppendorf centrifuge (4° C.) to pellet the DEAE-52-bound donor vesicles. An aliquot of the supernatant containing the acceptor liposomes was counted and the [^14C]-counts were used to calculate the percent triglyceride transfer from donor to acceptor vesicles.
Representative compounds of the present invention were measured for binding against the MTP receptor, as described above, with results as listed in Table 2 below.

[3] = test system: ethanol-induced hyperactivity; assay: Ethanol-induced hyperactivity (locomotor activity) in c57bl6/j mice; format: in vivo; settings: 10 mg/kg i.p.
Source text: C57bl6/j mice readily self-administer ethanol and these mice are sensitive to the stimulant effects of alcohol. NPY immunoreactivity is reduced in these mice. In addition, mice lacking NPY drink more ethanol than wild type mice; whereas, mice over-expressing NPY have reduced preference for ethanol. Experiments were designed to test the hypothesis that selective blockade of Y2 receptors by the compound of formula (A) decreases ethanol stimulant effects presumable by enhancing NPY function in the brain.
Locomotor activity was measured with a Hamilton Kinder motor monitor infrared beam apparatus equipped with a SmartFrame cage rack throughout which basic movements were recorded. Experiments assessed the effects of the compound of formula (A) on ethanol-induced hyperactivity in 8-10-week old c57bl6/j mice and were conducted using a between subject design. Vehicle (10 ml/kg, i.p.) or the compound of formula (A) (10 mg/kg, i.p.) was administered 15 min prior to the beginning of the session. Thereafter, animals received an acute injection of either vehicle (10 ml/kg, i.p.) or ethanol (1 g/kg, i.p), then they were immediately placed in the apparatus and locomotor activity was evaluated for 15 min. Data were analyzed with two-way repeated ANOVA using Graph Pad.

[4] = Pharmacokinetic study in rats; format: in vivo; settings: rat, whole blood; for Vd: iv
Method: The pharmacokinetic, blood-brain barrier penetration and ex vivo receptor occupancy studies were performed as described in Bonaventure, P., D. Nepomuceno, C. Mazur, B. Lord, D. A. Rudolph, J. A. Jablonowski, N. I. Carruthers and T. W. Lovenberg, J Pharmacol Exp Ther. 2004, 308, 1130.
The compound of formula (A) was formulated in 20% hydroxypropylbetacyclodextrine. Subcutaneous (SC), oral (PO) or intravenous (IV) dosing was followed by blood sampling via cardiac puncture over a time course. Blood samples consisted of 250 μl samples taken from the heart using a 23-gauge needle into 1.5 ml micro-centrifuge tubes. Brains were removed from the animals and bisected down the midsagittal plane. One hemisphere was frozen on dry ice for ex vivo receptor binding autoradiography and the other was homogenized for LC/MS-MS analysis.
All blood samples were deproteinized by 1:4 dilution of the sample with acetonitrile with vigorous mixing. These samples were incubated for 5 minutes, and then centrifuged at 14,000 rpm in a micro-centrifuge for 4 minutes. The supernatant was recovered into auto-sampler vials and diluted 1:1 with sterile water. Samples were analyzed by LC-MS/MS. A Vydac SP C18 2.1×50 mm analytical column was used for separation.
Oral, subcutaneous and intravenous pharmacokinetic parameters of the compound of formula (A) were determined in rats and are listed in Table 2 below.

MTP, sequence (P55157 19-894, species assumed): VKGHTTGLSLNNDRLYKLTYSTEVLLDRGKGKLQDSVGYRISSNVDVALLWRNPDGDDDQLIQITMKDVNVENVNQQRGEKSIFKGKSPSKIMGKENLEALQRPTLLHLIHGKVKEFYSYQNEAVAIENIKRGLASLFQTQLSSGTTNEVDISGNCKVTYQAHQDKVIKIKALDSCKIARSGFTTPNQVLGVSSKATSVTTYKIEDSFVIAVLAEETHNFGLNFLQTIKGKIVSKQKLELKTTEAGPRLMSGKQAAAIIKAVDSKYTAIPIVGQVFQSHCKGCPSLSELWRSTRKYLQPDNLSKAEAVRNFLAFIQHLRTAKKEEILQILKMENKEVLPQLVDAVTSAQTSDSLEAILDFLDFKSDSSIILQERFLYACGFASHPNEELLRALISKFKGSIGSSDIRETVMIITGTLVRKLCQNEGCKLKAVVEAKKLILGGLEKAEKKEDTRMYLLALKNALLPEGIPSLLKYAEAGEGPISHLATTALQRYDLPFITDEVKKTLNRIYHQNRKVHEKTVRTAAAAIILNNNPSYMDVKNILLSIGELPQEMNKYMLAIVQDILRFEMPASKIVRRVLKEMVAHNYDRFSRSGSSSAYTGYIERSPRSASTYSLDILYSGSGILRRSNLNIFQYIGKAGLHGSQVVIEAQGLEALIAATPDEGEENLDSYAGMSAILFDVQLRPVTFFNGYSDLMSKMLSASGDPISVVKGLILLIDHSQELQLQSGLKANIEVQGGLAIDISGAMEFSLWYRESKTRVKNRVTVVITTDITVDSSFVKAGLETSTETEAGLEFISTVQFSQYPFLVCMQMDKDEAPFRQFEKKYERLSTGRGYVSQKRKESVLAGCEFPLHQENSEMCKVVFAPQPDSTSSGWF
MTP, sequence (P07237 18-508 partner, species assumed): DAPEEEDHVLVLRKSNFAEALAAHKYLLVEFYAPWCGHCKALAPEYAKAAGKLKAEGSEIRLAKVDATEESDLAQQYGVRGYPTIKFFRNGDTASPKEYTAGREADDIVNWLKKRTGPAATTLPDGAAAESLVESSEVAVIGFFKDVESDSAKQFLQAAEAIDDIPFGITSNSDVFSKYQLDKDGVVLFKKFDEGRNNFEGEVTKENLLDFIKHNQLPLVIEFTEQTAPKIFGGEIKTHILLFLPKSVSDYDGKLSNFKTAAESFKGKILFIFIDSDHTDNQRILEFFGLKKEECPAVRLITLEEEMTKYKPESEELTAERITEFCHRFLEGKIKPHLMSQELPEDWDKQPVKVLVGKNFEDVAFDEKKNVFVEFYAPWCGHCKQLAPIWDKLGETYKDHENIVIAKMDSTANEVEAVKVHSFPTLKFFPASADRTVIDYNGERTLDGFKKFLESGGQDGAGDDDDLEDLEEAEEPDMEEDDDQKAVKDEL

- inhibition against each receptor of the panel (except NPY Y2) [1]: less than 50%
- IC50 [2]: 0.794 µM
- Vd ([4]; read-out: VSS): 0.73 L/kg
- Vd ([4]; read-out: Vz): 1.07 L/kg
- AUC(0-inf) ([4]; IV): 708 nM·h
- C0 ([4]; IV): 5.33 µM
- clearance ([4]; IV): 2.54 L/h/kg
- half-life ([4]; IV): 17.4 min
- AUC(0-inf) ([4]; PO 10 mg/kg): 444 nM·h
- Cmax ([4]; PO 10 mg/kg): 0.414 µM
- Tmax ([4]; PO 10 mg/kg): 30 min
- bioavailability ([4]; PO 10 mg/kg): 6%
- half-life ([4]; PO 10 mg/kg): 31.8 min
- AUC(0-inf) ([4]; SC 10 mg/kg): 7910 nM·h
- Cmax ([4]; SC 10 mg/kg): 4.35 µM
- Tmax ([4]; SC 10 mg/kg): 30 min
- bioavailability ([4]; SC 10 mg/kg): > 100%
- half-life ([4]; SC 10 mg/kg): 50 min
SMILES: CCN(CC)C(=O)C(c1ccccc1)N1CCN(c2ccc(NC(=O)c3ccccc3-c3cccnc3)cc2F)CC1 (racemic) [Cmpd (A), N-{4-[4-(Diethylcarbamoyl-phenyl-methyl)-piperazin-1-yl]-3-fluoro-phenyl}-2-pyridin-3-yl-benzamide]
- effect on ethanol-induced hyperactivity ([3]; 15 min before ethanol 1 g/kg i.p.): significantly reduced ethanol hyperactivity
- effect on locomotor activity by itself ([3]; no ethanol): did not change locomotor activity by itself
